Legend:
[1] = molecular target: Protein kinase C zeta type (Homo sapiens, UniProt Q05513); assay: Inhibition of recombinant human PKCzeta (2 to end residues) using ERMRPRKRQGSVRR as substrate incubated for 40 mins in presence of [gamma33P]ATP by radiometric scintillation counting analysis
[2] = Solubility of compound in miniQ water at 1 mg at 37 degreeC incubated under shaking conditions for overnight by LC-MS analysis; assay type: physicochemical
[3] = molecular target: Cyclin-dependent kinase 13/Cyclin-K (Homo sapiens, UniProt Q14004); assay: Inhibition of recombinant full length human CDK13/cyclinK using RSRSRSRSRSRSR as substrate incubated for 120 mins in presence of [gamma-33ATP] by radiometric scintillation counting analysis; assay type: protein-complex assay
[4] = molecular target: Receptor-type tyrosine-protein kinase FLT3 (Homo sapiens, UniProt P36888); assay: Inhibition of recombinant human FLT3 (564 to end residues) using EAIYAAPFAKKK as substrate after 40 mins in presence of [gamma-33ATP] by radiometric scintillation counting analysis
[5] = molecular target: Leucine-rich repeat serine/threonine-protein kinase 2 (Homo sapiens, UniProt Q5S007); assay: Inhibition of recombinant human LRRK2 (970 to end residues) using RLGRDKYKTLRQI as substrate after 40 mins in presence of [gamma-33ATP] by radiometric scintillation counting analysis
[6] = molecular target: Cyclin-dependent kinase-like 1 (Homo sapiens, UniProt Q00532); assay: Inhibition of recombinant human CDKL1 (1 to 303 residues) using RRRFRPASPLRGP as substrate incubated for 120 mins in presence of [gamma-33ATP] by radiometric scintillation counting analysis
Chain of Cyclin-dependent kinase-like 1 (Q00532 whole entry, the tested form may be a part): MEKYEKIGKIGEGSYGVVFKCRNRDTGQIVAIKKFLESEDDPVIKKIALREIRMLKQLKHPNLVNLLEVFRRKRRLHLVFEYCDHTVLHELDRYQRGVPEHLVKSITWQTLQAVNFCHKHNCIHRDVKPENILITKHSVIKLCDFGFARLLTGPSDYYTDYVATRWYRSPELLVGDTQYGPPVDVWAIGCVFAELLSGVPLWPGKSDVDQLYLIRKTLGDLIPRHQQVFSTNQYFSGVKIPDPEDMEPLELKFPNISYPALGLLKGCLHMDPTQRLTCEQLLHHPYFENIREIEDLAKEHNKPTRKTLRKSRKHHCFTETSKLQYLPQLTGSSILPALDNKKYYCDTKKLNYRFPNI

[7] = molecular target: Calcium/calmodulin-dependent protein kinase type 1G (Homo sapiens, UniProt Q96NX5); assay: Inhibition of recombinant full length human CaMK1gamma using KKLRRTLSFAEPG as substrate incubated for 40 mins in presence of [gamma-33ATP] by radiometric scintillation counting analysis
[8] = Protein binding in rat plasma at 1 uM incubated incubated for 5 hrs under shaking conditions by LC-MS analysis; assay type: ADME, cell-free; conditions: read-out: PPB (converted)
[9] = molecular target: Vascular endothelial growth factor receptor 2 (Homo sapiens, UniProt P35968); assay: Inhibition of human recombinant KDR (790 to end residues) using myelin basic protein as substrate after 40 mins by [gamma-33ATP] by radiometric scintillation counting analysis
Chain of Vascular endothelial growth factor receptor 2 (P35968 whole entry): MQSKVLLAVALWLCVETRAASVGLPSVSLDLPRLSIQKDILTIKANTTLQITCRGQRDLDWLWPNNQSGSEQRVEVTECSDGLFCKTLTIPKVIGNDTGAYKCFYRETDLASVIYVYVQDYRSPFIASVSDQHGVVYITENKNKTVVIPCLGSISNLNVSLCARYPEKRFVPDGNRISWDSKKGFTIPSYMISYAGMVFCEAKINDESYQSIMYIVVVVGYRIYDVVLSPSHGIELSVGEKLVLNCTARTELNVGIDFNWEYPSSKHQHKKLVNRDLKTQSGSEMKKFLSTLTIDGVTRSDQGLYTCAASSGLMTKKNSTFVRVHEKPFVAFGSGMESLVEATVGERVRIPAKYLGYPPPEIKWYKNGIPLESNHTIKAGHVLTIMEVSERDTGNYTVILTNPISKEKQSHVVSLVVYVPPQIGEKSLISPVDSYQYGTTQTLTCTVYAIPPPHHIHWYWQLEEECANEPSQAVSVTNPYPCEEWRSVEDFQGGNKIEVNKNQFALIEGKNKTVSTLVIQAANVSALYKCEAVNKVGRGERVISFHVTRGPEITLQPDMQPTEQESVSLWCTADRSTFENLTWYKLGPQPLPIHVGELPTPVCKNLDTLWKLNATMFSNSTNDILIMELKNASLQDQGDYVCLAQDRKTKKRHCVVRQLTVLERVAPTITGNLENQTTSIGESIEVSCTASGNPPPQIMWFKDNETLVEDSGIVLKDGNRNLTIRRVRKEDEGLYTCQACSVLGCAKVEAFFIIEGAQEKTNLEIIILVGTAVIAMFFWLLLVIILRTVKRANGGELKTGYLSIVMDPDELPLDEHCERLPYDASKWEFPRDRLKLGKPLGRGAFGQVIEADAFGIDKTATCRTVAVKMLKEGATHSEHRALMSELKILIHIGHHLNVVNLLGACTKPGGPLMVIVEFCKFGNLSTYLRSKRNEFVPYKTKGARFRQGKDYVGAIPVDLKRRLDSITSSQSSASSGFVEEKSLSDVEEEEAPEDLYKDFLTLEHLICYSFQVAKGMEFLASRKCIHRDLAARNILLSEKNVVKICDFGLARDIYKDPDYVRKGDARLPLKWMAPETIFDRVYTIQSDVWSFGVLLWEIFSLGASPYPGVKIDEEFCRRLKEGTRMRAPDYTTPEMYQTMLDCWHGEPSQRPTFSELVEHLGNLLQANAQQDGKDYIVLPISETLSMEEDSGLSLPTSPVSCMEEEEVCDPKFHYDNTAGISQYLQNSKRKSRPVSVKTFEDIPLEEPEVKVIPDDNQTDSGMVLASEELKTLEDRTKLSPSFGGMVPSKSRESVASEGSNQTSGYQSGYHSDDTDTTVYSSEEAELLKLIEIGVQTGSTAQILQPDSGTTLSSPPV

[10] = molecular target: cAMP-dependent protein kinase catalytic subunit beta (Homo sapiens, UniProt P22694); assay: Inhibition of recombinant full length human PKAcbeta using KEAKEKRQEQIAKR as substrate incubated for 40 mins in presence of [gamma33P]ATP by radiometric scintillation counting analysis
[11] = molecular target: cGMP-dependent protein kinase 2 (Homo sapiens, UniProt Q13237); assay: Inhibition of recombinant full-length human PRKG2 using KKLRRTLSFAEPG as substrate incubated for 40 mins in presence of [gamma33P]ATP by radiometric scintillation counting analysis
Chain of cGMP-dependent protein kinase 2 (Q13237 whole entry): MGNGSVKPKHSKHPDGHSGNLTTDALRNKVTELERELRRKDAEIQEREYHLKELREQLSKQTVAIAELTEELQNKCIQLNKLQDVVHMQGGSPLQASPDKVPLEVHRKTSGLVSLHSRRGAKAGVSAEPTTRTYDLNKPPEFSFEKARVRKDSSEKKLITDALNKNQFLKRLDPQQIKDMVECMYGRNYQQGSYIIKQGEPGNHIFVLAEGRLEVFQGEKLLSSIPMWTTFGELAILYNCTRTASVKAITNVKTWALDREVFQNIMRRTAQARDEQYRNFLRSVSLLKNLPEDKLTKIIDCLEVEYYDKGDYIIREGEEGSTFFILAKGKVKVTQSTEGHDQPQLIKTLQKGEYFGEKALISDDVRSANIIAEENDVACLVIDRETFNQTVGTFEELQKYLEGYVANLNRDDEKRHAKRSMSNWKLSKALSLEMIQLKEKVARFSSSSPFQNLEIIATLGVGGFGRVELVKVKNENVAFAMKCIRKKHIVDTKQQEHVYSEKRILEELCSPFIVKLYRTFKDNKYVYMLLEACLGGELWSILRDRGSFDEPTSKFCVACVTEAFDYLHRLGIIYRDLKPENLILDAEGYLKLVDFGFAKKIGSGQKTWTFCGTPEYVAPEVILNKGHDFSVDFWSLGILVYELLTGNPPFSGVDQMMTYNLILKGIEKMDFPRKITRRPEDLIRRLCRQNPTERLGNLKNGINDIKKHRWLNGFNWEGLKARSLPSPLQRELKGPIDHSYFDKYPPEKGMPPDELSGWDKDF

[12] = molecular target: Bone morphogenetic protein receptor type-1B (Homo sapiens, UniProt O00238); assay: Inhibition of human recombinant ALK6 (148 to end residues) using casein as substrate incubated for 40 mins in presence of [gamma-33P]ATP by radiometric scintillation counting analysis
[13] = molecular target: MAP/microtubule affinity-regulating kinase 3 (Homo sapiens, UniProt P27448); assay: Inhibition of recombinant full length human MARK3 using KKKVSRSGLYRSP as substrate incubated for 40 mins in presence of [gamma-33ATP by radiometric scintillation counting analysis
[14] = molecular target: [Pyruvate dehydrogenase (acetyl-transferring)] kinase isozyme 4, mitochondrial (Homo sapiens, UniProt Q16654); assay: Inhibition of recombinant human full length PDHK4 using KKKYHGHSMSDPG as substrate incubated for 40 mins in presence of [gamma33P]ATP by radiometric scintillation counting analysis
[15] = molecular target: Tyrosine-protein kinase Lck (Homo sapiens, UniProt P06239); assay: Inhibition of recombinant full length human LCK using […] as substrate after 40 mins in presence of [gamma-33ATP] by radiometric scintillation counting analysis
[16] = molecular target: Serine/threonine-protein kinase mTOR (Homo sapiens, UniProt P42345); assay: Inhibition of recombinant full length human mTOR measured after 40 mins in presence of [gamma33P]ATP by radiometric scintillation counting analysis
[17] = molecular target: G protein-coupled receptor kinase 3 (Homo sapiens, UniProt P35626); assay: Inhibition of recombinant full length human GRK3 using casein as substrate after 40 mins in presence of [gamma-33ATP] by radiometric scintillation counting analysis
[18] = Inhibition of recombinant human DDR1 V833L mutant (492 to end residues) using KKKSPGEYVNIEF as substrate after 40 mins in presence of [gamma-33ATP] by radiometric scintillation counting analysis
[19] = molecular target: Mitogen-activated protein kinase 14 (Homo sapiens, UniProt Q16539); assay: Inhibition of recombinant human full length SAPK2a using myelin basic protein as substrate incubated for 40 mins in presence of [gamma33P]ATP by radiometric scintillation counting analysis
Chain of Mitogen-activated protein kinase 14 (Q16539 whole entry): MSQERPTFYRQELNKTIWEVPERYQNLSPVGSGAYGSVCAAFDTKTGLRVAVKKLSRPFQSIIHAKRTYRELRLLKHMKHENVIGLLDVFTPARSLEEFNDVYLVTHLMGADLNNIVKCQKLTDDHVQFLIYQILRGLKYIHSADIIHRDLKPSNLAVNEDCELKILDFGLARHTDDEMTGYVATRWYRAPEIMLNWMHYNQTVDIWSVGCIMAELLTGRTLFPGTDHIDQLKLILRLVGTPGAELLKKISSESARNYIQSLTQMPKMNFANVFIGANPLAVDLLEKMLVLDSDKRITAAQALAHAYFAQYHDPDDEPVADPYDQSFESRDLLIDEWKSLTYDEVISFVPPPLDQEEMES

[20] = molecular target: Eukaryotic translation initiation factor 2-alpha kinase 1 (Homo sapiens, UniProt Q9BQI3); assay: Inhibition of human recombinant HRI (140 to end residues) using RSRSRSRSRSRSR as substrate after 120 mins by [gamma-33ATP] radiometric assay
Chain of Eukaryotic translation initiation factor 2-alpha kinase 1 (Q9BQI3 whole entry, the tested form may be a part): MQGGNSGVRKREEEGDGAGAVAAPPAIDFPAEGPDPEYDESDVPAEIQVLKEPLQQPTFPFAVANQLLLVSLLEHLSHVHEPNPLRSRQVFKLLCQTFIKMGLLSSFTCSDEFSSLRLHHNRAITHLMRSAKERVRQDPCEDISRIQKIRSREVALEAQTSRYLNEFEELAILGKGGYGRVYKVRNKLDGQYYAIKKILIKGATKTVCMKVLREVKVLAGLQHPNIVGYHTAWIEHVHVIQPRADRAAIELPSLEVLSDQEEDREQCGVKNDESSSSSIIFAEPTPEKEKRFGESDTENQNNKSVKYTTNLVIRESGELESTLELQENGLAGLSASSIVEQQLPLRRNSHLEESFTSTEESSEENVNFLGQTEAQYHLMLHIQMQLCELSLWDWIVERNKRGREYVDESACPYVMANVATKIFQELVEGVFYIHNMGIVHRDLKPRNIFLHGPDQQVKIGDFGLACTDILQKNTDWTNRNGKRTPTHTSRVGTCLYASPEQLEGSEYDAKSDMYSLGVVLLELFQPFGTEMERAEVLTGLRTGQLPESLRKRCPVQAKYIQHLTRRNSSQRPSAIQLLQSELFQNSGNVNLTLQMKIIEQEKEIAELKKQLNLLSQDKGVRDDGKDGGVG

[21] = molecular target: Fibroblast growth factor receptor 2 (Homo sapiens, UniProt P21802, N549H); assay: Inhibition of recombinant human FGFR2 N549H mutant (456 to 765 residues) using GGEEEEYFELVKK as substrate after 40 mins in presence of [gamma-33ATP] by radiometric scintillation counting analysis
[22] = molecular target: Phosphatidylinositol 4-phosphate 3-kinase C2 domain-containing subunit alpha (Homo sapiens, UniProt O00443); assay: Inhibition of human PI3KC2
[23] = molecular target: Serine/threonine-protein kinase 32A (Homo sapiens, UniProt Q8WU08); assay: Inhibition of recombinant human full length STK32A using casein as substrate incubated for 40 mins in presence of [gamma33P]ATP by radiometric scintillation counting analysis
[24] = molecular target: Death-associated protein kinase 3 (Homo sapiens, UniProt O43293); assay: Inhibition of recombinant human ZIPK (1 to 290 residues) using KKLNRTLSFAEPG substrate incubated for 40 mins in presence of [gamma33P]ATP by radiometric scintillation counting analysis
Chain of Death-associated protein kinase 3 (O43293 whole entry, the tested form may be a part): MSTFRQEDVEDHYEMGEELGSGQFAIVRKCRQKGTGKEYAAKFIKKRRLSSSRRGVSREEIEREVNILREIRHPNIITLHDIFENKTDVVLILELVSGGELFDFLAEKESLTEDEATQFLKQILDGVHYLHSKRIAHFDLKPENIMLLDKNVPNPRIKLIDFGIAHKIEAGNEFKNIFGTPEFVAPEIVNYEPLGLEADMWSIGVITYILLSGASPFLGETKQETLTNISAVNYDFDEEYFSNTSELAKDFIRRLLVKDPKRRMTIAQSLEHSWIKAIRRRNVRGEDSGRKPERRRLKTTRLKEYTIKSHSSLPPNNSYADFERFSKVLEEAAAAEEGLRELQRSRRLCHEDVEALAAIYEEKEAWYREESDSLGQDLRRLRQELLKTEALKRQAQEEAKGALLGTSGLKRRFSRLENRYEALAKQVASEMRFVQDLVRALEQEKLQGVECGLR

[25] = molecular target: Serine/threonine-protein kinase SBK1 (Homo sapiens, UniProt Q52WX2); assay: Inhibition of recombinant full-length human SBK1 using KKLRRTLSVA as substrate incubated for 120 mins in presence of [gamma33P]ATP by radiometric scintillation counting analysis
Chain of Serine/threonine-protein kinase SBK1 (Q52WX2 whole entry): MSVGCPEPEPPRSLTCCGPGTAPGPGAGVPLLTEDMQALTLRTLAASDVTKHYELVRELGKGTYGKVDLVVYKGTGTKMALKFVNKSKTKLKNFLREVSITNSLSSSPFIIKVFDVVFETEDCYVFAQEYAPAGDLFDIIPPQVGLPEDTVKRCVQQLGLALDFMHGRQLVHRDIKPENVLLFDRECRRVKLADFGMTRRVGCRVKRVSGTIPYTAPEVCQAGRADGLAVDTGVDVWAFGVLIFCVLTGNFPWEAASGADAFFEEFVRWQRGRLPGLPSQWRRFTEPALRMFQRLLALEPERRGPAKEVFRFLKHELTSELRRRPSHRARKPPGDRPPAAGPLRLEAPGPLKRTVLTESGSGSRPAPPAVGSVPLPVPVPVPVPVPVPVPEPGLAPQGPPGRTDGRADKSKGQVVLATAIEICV

[26] = molecular target: Serine/threonine-protein kinase pim-3 (Homo sapiens, UniProt Q86V86); assay: Inhibition of recombinant human Pim3 (2 to end residues) using RSRHSSYPAGT as substrate incubated for 40 mins in presence of [gamma33P]ATP by radiometric scintillation counting analysis
[27] = molecular target: Ribosomal protein S6 kinase alpha-6 (Homo sapiens, UniProt Q9UK32); assay: Inhibition of recombinant full length human Rsk4 using LRRASLG as substrate incubated for 40 mins in presence of [gamma33P]ATP by radiometric scintillation counting analysis

CN(C)c1ccc(C(=O)Nc2cccc(NC(=O)COc3ccc4c(=O)ccoc4c3)c2)cc1
> 10 µM: IC50 [1] | IC50 [3] | IC50 [4] | IC50 [5] | IC50 [6] | IC50 [7] | IC50 [9] | IC50 [10] | IC50 [11] | IC50 [12] | IC50 [13] | IC50 [14] | IC50 [15] | IC50 [16] | IC50 [17] | IC50 [18] | IC50 [19] | IC50 [20] | IC50 [21] | IC50 [22] | IC50 [23] | IC50 [24] | IC50 [25] | IC50 [26] | IC50 [27]
0.634 µg/mL: solubility thermodynamic [2]
0.004: fraction unbound at 5 h, 1 µM [8]

From ChEMBL document CHEMBL4376834, “Discovery of 4H-Chromen-4-one Derivatives as a New Class of Selective Rho Kinase (ROCK) Inhibitors, which Showed Potent Activity in ex Vivo Diabetic Retinopathy Models” (J Med Chem, 2019)
